Measured values from article PMC5852498, “Lactomycins A–C, Dephosphorylated Phoslactomycin Derivatives That Inhibit Cathepsin B, from the Marine-Derived Streptomyces sp. ACT232” (Marine Drugs, 2018).
pIC50: −log10 of the molar value. Read-outs that look alike come from different tables or passages of the source.

Biological target: T1, cathepsin B (Bos taurus, UniProt P07688)
T1 construct: gene CTSB; cathepsin B from bovine spleen (Sigma C6286)
Test: fluorogenic enzyme assay with Z-Arg-Arg-AMC, pH […] °C
Type: biochemical

Row | SMILES | pIC50 (read-out: IC50) | pIC50
1 | CC[C@H]1C=CC(=O)O[C@H]1/C=C/[C@](O)(CCO)[C@H](O)C[C@@H](O)/C=C\C=C/[C@@H]1CCC[C@H](O)C1 [compound 1, Lactomycin A] | 5.35 | 
2 | CC[C@H]1C=CC(=O)O[C@H]1/C=C/[C@](O)(CCN)[C@H](O)C[C@@H](O)/C=C\C=C/[C@@H]1CCC[C@H](O)C1 [compound 2, Lactomycin B] | 6.10 | 
3 | CC[C@H]1C=CC(=O)O[C@H]1/C=C/[C@@](C)(O)[C@H](O)C[C@@H](O)/C=C\C=C/[C@@H]1CCC[C@H](O)C1 [compound 3, Lactomycin C] |  | 5.80
